Measured values: US20240059685A1, “PIEZO1 AGONISTS FOR THE PROMOTION OF BONE FORMATION” (BIOVENTURES, LLC, priority 2019, published 2024)
“Also recorded” adds a separate entry of the source.

Legend:
Piezo1 = molecular target: T1, Piezo1 (Mus musculus, UniProt E2JF22); experiment: Intracellular calcium concentration (Fluo-8) in control or Piezo1 knock-down MLO-Y4 cells; assay type: cell-based, murine; details: for calcium influx / increase of intracellular calcium in Piezo1 knock-down cells: Piezo1 knock-down (sh-Piezo1) MLO-Y4 cells
T1 construct: To identify Piezo1 stimulators, we treated MLO-Y4 cells with compounds; endogenous in cells; host or cells: MLO-Y4 (murine osteocyte-like cell line); control sh-Luc cells, with sh-Piezo1 knock-down cells as the specificity control
T1 sequence (E2JF22 whole entry): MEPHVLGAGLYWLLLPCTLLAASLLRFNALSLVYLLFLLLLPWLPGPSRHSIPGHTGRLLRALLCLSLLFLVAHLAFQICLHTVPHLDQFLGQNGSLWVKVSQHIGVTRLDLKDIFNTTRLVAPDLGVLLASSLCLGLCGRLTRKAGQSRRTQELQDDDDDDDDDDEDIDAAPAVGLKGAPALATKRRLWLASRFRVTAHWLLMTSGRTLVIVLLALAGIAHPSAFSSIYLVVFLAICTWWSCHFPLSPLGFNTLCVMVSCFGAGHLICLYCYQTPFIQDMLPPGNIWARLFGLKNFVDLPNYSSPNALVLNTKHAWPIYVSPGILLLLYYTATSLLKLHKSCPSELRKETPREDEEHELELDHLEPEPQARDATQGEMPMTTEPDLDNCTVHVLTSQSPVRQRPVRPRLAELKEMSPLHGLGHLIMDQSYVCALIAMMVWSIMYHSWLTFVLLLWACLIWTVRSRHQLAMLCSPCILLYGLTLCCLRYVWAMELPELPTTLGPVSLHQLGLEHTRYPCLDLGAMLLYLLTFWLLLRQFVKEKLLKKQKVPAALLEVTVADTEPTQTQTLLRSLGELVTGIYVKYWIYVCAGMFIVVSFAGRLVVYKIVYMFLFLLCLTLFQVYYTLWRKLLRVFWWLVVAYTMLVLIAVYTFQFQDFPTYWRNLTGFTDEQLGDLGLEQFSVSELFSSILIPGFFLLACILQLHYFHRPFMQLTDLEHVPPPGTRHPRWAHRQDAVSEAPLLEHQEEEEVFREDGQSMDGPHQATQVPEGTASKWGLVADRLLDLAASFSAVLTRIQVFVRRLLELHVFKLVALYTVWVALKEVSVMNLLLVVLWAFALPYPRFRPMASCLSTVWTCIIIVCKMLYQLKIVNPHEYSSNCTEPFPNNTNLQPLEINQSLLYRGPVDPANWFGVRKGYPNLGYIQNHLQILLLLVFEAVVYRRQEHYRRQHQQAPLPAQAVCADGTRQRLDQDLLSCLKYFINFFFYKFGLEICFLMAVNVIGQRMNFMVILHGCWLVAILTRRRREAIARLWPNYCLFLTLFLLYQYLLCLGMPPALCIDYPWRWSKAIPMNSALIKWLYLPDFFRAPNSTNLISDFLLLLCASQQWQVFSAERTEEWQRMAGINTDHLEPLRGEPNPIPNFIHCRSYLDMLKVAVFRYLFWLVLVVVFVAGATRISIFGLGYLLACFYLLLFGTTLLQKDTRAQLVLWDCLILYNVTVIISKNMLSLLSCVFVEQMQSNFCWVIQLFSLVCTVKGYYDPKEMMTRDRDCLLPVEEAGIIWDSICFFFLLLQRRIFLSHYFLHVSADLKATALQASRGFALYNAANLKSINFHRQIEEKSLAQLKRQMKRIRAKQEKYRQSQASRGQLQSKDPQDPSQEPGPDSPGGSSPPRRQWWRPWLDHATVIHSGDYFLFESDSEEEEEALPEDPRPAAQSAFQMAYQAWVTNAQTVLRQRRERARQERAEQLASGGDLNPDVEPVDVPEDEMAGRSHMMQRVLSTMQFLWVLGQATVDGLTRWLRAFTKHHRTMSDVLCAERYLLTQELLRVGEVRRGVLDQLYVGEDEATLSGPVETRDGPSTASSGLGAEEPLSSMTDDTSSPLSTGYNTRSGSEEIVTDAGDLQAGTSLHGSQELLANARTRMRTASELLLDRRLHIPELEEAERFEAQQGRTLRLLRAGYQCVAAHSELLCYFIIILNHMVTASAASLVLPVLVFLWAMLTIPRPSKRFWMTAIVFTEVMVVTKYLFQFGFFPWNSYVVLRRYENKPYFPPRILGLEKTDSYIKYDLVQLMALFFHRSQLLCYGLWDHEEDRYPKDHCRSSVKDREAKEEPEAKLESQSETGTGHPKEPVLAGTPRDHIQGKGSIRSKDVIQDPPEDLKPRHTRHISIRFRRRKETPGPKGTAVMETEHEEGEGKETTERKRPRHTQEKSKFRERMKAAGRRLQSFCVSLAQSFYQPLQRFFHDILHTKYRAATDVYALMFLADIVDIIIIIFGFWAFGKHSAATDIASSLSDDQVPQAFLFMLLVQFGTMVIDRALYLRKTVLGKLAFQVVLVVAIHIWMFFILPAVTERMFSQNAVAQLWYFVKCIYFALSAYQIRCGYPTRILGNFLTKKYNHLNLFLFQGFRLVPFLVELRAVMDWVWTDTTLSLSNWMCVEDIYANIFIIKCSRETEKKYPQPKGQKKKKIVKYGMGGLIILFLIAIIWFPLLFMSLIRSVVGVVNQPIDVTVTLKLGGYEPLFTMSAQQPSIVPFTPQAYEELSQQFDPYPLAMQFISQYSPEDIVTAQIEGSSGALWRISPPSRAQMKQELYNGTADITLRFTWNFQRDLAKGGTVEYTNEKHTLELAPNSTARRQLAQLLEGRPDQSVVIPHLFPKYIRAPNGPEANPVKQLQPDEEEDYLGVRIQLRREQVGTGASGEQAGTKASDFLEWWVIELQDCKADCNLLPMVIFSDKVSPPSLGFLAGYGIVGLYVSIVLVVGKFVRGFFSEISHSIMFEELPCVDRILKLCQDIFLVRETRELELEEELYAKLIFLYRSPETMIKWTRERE
Protocol: Calcium concentration measurement. For intracellular calcium concentration measurement under fluid flow condition, 1×10^5 MLO-Y4 cells were seeded in a μ-Slide I Luer (0.4 mm) fluid chamber slide (MIDI, Germany) overnight. One hour before initiating fluid flow, the culture medium was removed and 100 μl Hank's Buffer with Hepes (HHBS) containing 4μM Fluo-8 (Abcam, Cambridge, MA) was added to the culture, as described by the manufacturer. The cells were then cultured at 37° C. for 30 minutes. After additional incubation at room temperature for 30 minutes, the chamber slide was placed under a confocal microscope in order to record the intensity of fluorescence of MLO-Y4 cells. Fluorescence was recorded for 3 minutes before starting fluid flow using HHBS and then recorded for another 10 minutes. The increase of intracellular concentration was calculated by subtracting the initial mean fluorescence. For measuring intracellular calcium concentration in cells with Yoda1 treatment, we cultured 4,000 MLO-Y4 cells per well in a 96-well-plate. We preloaded the cells with Fluo-8 as described by the manufacturer and read the intensity of the fluorescence using a Victor X3 multi-label plate reader (Perkin Elmer, Waltham, MA) immediately after the treatment. We measured the fluorescence for 5 minutes at an interval of 20 seconds. The percentage of increase in intracellular calcium concentration was calculated as (Fx-F0)/F0.
To identify Piezo1 stimulators, we treated MLO-Y4 cells with compounds Yoda1, YW-3-159, W-3-163, W-3-168-1, W-3-168-2, W-3-170, W-3-173-1, W-3-173-2, and YW-3-174. Gene expression of Wnt1, Ptgs2, and Tnfrsf11b was measured to determine the activation of Piezo1. In addition, intracellular calcium concentration was measured to determine the activity of Piezo1 channel. […] Yoda1 was used as a positive control in all experiments.

MLO-Y4 cells = experiment: ATP production in MLO-Y4 cells; assay type: cell-based, murine; details: 30 minutes, different doses
calvaria cells [1] = experiment: Oxygen consumption rate and ATP production (seahorse) in wildtype and Piezo1 knockout calvaria cells; assay type: cell-based; details: 10 μM, 1 hour; for changes in mitochondrial oxygen consumption rate in cells lacking Piezo1 / increases in ATP production in Piezo1 knockout cells: Piezo1 knockout calvaria cells
Protocol: To determine whether activation of Piezo1 by Yoda1 or YW-3-170 is associated with increased mitochondrial function, we measured oxygen consumption rate and ATP production in calvaria cells treated by Yoda1 or YW-3-170. Wildtype and Piezo1 knockout calvarial cells were cultured in α-MEM medium supplemented with 10% fetal bovine serum and treated with 10 μM Yoda1 or YW-3-170 for 1 hour. Oxygen consumption rate and ATP production were measured using seahorse. […] Importantly, these increases were diminished in Piezo1 knockout cells.

calvaria cells [2] = experiment: Mitochondria staining (MitoBright dye) in wildtype and Piezo1 knockout calvaria cells; assay type: cell-based; details: 10 μM, 24 hours; for increases in mitochondria staining in Piezo1 knockout cells: Piezo1 knockout calvaria cells; for mitochondria staining: wildtype calvaria cells
Protocol: Next, we determined whether Yoda1 or YW-3-170 increase mitochondria number in primary calvaria cells. Wildtype and Piezo1 knockout calvarial cells were treated with 10 μM Yoda1 or YW-3-170 for 24 hours and then were stained for Mitochondria using MitoBright dye. […] However, these increases were blunted in Piezo1 knockout cells. […] The fluorescence intensity was quantified using the ImageJ software.

intracellular calcium concentration (Piezo1; MLO-Y4 cells, 10 μM, vs DMSO)	calcium influx compared with Yoda1 (Piezo1; MLO-Y4 cells, 10 μM)	intracellular calcium concentration, dose dependence (Piezo1; MLO-Y4 cells, different doses)	Compound	calcium influx / increase of intracellular calcium in Piezo1 knock-down cells (Piezo1; 10 μM)	ATP production (MLO-Y4 cells)	changes in mitochondrial oxygen consumption rate in cells lacking Piezo1 (calvaria cells [1])	increases in ATP production in Piezo1 knockout cells (calvaria cells [1])	ATP production (calvaria cells [1]; wildtype calvaria cells)	mitochondrial oxygen consumption rate at basal level as well as stimulated level (calvaria cells [1]; wildtype calvaria cells)	increases in mitochondria staining in Piezo1 knockout cells (calvaria cells [2])	mitochondria staining (calvaria cells [2])	intracellular calcium concentration compared with Yoda1 (Piezo1; MLO-Y4 cells, at 2 μM, 5 μM, and 10 μM)	ATP production compared with Yoda1 (calvaria cells [1]; wildtype calvaria cells)	mitochondrial oxygen consumption rate at basal level as well as stimulated level (calvaria cells [1]; wildtype calvaria cells, listed as 170)	increases in mitochondria staining in Piezo1 knockout cells (calvaria cells [2]; listed as 170)	increases in mitochondria staining in Piezo1 knockout cells (calvaria cells [2]; listed as compound I)	stimulation of mitochondria staining compared with Yoda1 (calvaria cells [2]; calvaria cells)	mitochondria staining (calvaria cells [2]; listed as 170)	mitochondria staining (calvaria cells [2]; listed as compound I)
increased			Clc1cccc(Cl)c1CSc1nnc(-c2cnccn2)s1 [Yoda1]	completely prevented; also recorded: completely blocked	increased ATP production in MLO-Y4 cells in a dose-dependent manner	significantly blunted	diminished	stimulated; also recorded: increase	increase	blunted; also recorded: requires Piezo1	increase								
	much more calcium influx than Yoda1	dose-dependently	Fc1ccc(Cl)c(CSc2nnc(-c3cnccn3)s2)c1Cl [YW-3-170]	completely blocked; also recorded: loss of their ability to stimulate calcium influx	increased ATP production in MLO-Y4 cells in a dose-dependent manner	significantly blunted	diminished	increase	increased			higher intracellular calcium concentration than Yoda1	more ATP production than Yoda1	increase	requires Piezo1	blunted	more potent stimulation of mitochondria staining than Yoda1	increase	increased
